From US4782159A, “Process for preparing beta-methyl-gamma-oxo-4-(4-oxo-1(4H)-pyridinyl) derivative of benzene butanoic acid” (Smith Kline & French Laboratories Limited, priority 1986, dated 1988) come the findings set out here.

Usually IC50 stands for the midpoint of a concentration-inhibition curve. Lower therefore signals higher potency.

Data set [1] relates to left ventricular dp/dt max. Briefly: Cardiac Stimulant Activity--In vivo (Conscious Dogs). More on the design: species or system dog. On the procedure: The compound of formula (2) increased left ventricular dp/dt max in conscious dogs after intravenous administration at doses below 0.02 mg/kg. Oral administration caused positive inotropic responses at doses of 0.05 mg/kg and below.

In data set [2] the target is T1, PDE (Peak III) (Felis catus, UniProt A0ABI7YEY2).
T1 sequence (A0ABI7YEY2 1-1144): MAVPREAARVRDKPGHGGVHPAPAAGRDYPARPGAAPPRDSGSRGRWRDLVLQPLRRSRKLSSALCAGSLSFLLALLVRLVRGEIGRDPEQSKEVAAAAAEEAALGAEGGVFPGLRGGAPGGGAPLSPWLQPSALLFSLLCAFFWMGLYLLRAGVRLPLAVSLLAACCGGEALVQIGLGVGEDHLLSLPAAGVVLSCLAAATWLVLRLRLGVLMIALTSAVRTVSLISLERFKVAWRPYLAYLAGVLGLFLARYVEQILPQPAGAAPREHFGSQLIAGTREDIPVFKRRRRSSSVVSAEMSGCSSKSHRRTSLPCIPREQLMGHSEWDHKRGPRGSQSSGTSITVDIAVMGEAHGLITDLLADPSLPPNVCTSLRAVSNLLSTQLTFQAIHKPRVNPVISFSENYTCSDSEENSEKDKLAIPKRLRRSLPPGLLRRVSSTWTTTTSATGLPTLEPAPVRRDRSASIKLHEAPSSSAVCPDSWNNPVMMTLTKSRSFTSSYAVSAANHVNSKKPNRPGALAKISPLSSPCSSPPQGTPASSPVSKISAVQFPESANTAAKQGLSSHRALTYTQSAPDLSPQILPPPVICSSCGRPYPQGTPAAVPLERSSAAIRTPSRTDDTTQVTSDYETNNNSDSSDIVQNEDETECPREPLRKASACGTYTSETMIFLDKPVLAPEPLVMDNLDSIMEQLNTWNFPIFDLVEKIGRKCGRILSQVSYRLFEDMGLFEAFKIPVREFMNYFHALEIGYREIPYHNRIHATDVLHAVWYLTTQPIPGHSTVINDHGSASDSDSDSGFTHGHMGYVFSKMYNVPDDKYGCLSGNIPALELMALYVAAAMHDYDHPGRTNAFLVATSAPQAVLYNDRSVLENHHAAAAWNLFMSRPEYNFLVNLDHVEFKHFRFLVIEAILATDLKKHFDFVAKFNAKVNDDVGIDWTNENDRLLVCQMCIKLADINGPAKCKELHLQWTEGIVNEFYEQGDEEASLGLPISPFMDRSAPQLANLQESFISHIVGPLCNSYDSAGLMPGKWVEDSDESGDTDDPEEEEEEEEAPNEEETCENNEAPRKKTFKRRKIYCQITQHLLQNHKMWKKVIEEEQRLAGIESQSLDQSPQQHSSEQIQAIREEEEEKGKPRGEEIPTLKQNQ
Briefly: Inhibition of Phosphodiesterases, PDE (Peak III).
Procedure: (§2) The enzyme was assayed by incubation at 37° for 4-30 min in 50 mM Tris, 5 mM MgCl2, pH 7.5 with [3-H] cyclic nucleotide (4×10^5 disintegrations min^-1) and [14-C] nucleotide 5' monophosphate (3×10^3 disintegrations min^-1). The assay was stopped by boiling, and the [3-H] […] The reaction mixture was diluted with 0.5 ml 100 mM HEPES (N-2-Hydroxyethylpiperazine-N'-2-ethanesulfonic acid), 100 mM NaCl, pH 8.5, and applied to the column. […] The recovery of product as judged by [14-C] recovery was approximately 80%. All assays were linear with time of incubation and concentration of enzyme over the range used in these experiments.

Data set [3] deals with T1, PDE (Peak III). Briefly: Substrate kinetics of PDE (Peak III) from cat heart. Type of data set: biochemical. More on the design: DEAE-Sepharose Peak III from high-speed supernatant of cat heart homogenate.
Procedure: as §2
The subject of data set [4] is PDE (Peak I). Briefly: Substrate kinetics of PDE (Peak I) from cat heart. Type of data set: biochemical. The note with it: for Relative Vmax: PDE (Peak I).
Data set [5] has as its target T2, PDE (Peak II) (Felis catus, UniProt A0ABI7ZLD2).
T2 construct: DEAE-Sepharose CL-6B Peak II of cat heart high-speed supernatant
T2 sequence (A0ABI7ZLD2 1-921): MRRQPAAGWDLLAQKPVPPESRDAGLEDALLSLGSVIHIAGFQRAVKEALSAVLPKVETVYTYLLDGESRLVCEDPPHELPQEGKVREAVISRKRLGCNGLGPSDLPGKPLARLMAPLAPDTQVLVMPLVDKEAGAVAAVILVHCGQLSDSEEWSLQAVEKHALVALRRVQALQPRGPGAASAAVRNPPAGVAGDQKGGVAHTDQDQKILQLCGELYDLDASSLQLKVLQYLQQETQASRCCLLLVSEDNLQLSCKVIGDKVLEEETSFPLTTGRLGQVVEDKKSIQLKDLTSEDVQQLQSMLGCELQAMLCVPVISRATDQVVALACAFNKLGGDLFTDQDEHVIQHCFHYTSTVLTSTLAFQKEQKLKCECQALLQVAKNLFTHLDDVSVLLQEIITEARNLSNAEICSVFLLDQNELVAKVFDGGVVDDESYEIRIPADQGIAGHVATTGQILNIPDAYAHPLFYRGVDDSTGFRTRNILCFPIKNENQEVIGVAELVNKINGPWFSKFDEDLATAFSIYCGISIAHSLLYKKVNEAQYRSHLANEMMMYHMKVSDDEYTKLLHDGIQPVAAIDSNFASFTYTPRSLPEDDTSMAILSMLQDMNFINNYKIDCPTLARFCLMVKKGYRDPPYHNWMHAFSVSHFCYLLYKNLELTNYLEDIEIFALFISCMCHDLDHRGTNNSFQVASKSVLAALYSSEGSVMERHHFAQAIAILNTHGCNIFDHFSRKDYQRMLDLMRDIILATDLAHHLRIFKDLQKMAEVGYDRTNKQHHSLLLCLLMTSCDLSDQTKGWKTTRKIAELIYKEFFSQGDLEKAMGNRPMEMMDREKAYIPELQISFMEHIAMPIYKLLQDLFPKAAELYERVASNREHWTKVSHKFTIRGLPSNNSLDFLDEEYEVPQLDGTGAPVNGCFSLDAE
Briefly: Substrate kinetics of PDE (Peak II) from cat heart. Type of data set: biochemical.
Procedure: as §2

The test system of data set [6] is platelet aggregation induced by the endoperoxide mimetic U44069. Briefly: Platelet Aggregation Inhibition--In vitro. It counts as cell-based. The note with it: U44069 (10 μM), aspirin-treated (100 μM) human platelet rich plasma. On the procedure:
Platelet rich plasma (PRP) was prepared from whole human blood anti-coagulated with 1/10 volume acid citrate dextrose. The citrated blood was centrifuged at 700 g for 5 minutes and the PRP removed. The remaining red cells and plasma were centrifuged for a further 15 minutes at 900 g and the platelet poor plasma removed. This was then mixed with the PRP to give a final platelet count of 2-3×10^8 cells/ml.
PRP was divided into 0.5 ml aliquots which were preincubated for 2 minutes to 37° C. before being placed in the sample chamber of an HG aggregometer connected to a Teckman chart recorder.
Aspirin was added to a concentration of 100 μM.
Aggregation to the endoperoxide mimetic U44069 (9,11-epoxymethano-PGH2) was then examined in the absence and presence of a range of concentrations of the compound of formula (2).

For data set [7], the system named is left ventricular dp/dt max (index of left ventricular contractility). Briefly: Cardiac Stimulant Activity--In vivo (Anaesthetised Cats). More on the design: species or system cat. Conditions: intravenous. The source says:
In anaesthetised cats pretreated with a ganglion blocker (mecamylamine or pempidine) and propranolol, the compound of formula (2) causes increases in left ventricular dp/dt max (this is an index of left ventricular contractility) when administered intravenously.

In data set [8] the test system is PDE (Peak I). Briefly: Inhibition of Phosphodiesterases, PDE (Peak I). It counts as biochemical, cat. Conditions: at up to 10^-4 M. From the text:
(§1) This specificity is an indication that the compound is likely to have a force/rate selectivity in its cardiac stimulant activity with a low potential for inducing arrythmias.

For data set [9], the target named is T2, PDE (Peak II). Briefly: Inhibition of Phosphodiesterases, PDE (Peak II). Type of data set: biochemical, cat.
Source text: as §1

In data set [10] the test system is histamine-induced bronchoconstriction. Briefly: Bronchodilatation--In vivo (histamine-induced bronchoconstriction). More on the design: species or system guinea-pig, Dunkin Hartley strain. Conditions: i.v., one minute before histamine challenge. As for the experimental part: Male guinea-pigs of the Dunkin Hartley strain (530 g±6 g) were anaesthetised with Sagatal (pentobarbital sodium) (90 mg/kg i.p.). Airway resistance was measured using a modification of the classical Konzett-Rossler technique (Versuchsanordnung zu Untersuchungen an der Bronchialmuskulatur. Naunyn-Schmiedebergs Arch. Exp. Path. Pharmak., 195: pp 71-74, (1940)). A dose of histamine which gave approximately 150% increase in airway resistance was selected for i.v. administration. Bolus doses of the compound of formula (2) was administered (i.v.) one minute before the histamine challenge.

“Also recorded” adds a separate entry of the source.

As for `Nc1cc(-c2ccncc2)c[nH]c1=O` [Amrinone, reference compound], in [1], the “activity in comparison with the compound of formula (2)” value is on record as “less active” and the “duration in comparison with the compound of formula (2)” value is “shorter duration”. The same molecule returned a half-maximal inhibitory concentration (IC50) at PDE (Peak III) [2] (PDE (Peak III), 1 μM cyclic AMP) of 51.8 µM.
`Nc1nc2c(ncn2[C@@H]2O[C@@H]3COP(=O)(O)O[C@H]3[C@H]2O)c(=O)[nH]1` [cyclic GMP]: the “Relative Vmax” value on PDE (Peak III) [3] amounted to 0.4; in the data set with PDE (Peak I) [4] (50 μg/ml calmodulin added), 7.2; with PDE (Peak I) [4] (without calmodulin) it was 1.1; on PDE (Peak II) [5] (PDE (Peak II)) it was 0.2. The “affinity of PDE (Peak I) for substrate” value with PDE (Peak I) [4] (in words) is given as “high affinity”. Besides, on PDE (Peak II) [5] (in words), the “affinity of PDE (Peak II) for substrate” value is listed as “relatively low affinities”.
`CC1CC(=O)NN=C1c1ccc(-n2ccc(=O)cc2)cc1` (centres unmarked) [formula (2)]: the IC50 in [6] came out at 0.08 ± 0.01 µM. In addition, the ED50 in [7] (Felis catus, read-out: ED50 (dose to increase left ventricular dp/dt max by 50%), anaesthetised cats pretreated with ganglion blocker and propranolol) amounted to 0.04 µmol/kg; in [10] (Cavia porcellus, iv, read-out: ED50 (dose which reduced the histamine bronchoconstriction by 50%)), 1.8 µmol/kg. For the same molecule, the “changes in blood pressure or heart rate” value in data set [7] (anaesthetised cats) is “Minimal changes”; in data set [1], “without changes”. In addition, in the data set with PDE (Peak I) [8], the “inhibition of PDE (Peak I)” value was “no inhibition”. Also, at PDE (Peak II) [9], the “inhibition of PDE (Peak II)” value is listed as “either no or weak inhibition”. The force-rate selectivity entry in data set [1] was “particularly beneficial”. The “selectivity for PDE (Peak III) / phosphodiesterase type III” value at PDE (Peak III) [2] (versus PDE (Peak I) and PDE (Peak II)) is recorded as “selective phosphodiesterase type III inhibitor; also recorded: selective PDE (Peak III) inhibitor”. Besides, in data set [10] (Cavia porcellus, read-out: threshold dose), the minimal effective dose stood at 0.01 µmol/kg. Besides, in data set [10], the “effect on histamine-induced bronchoconstriction” value was “reduced the histamine-induced bronchoconstriction”.
